Patent EP1660440B1, “ACYLOXYALKYL CARBAMATE PRODRUGS, METHODS OF SYNTHESIS AND USE” (priority 2003, dated 2005)
Where two headings read alike, the source gives them in different places.

Key:
[1] = system: Caco-2 cells; conditions: human, Caco-2, 200 uM
[2] = system: Pancreatin; experiment: Pancreatin stability; assay type: in vitro ADME, porcine; conditions: 1 % (w/v) pancreatin, 5 µM, pH 7.5, 37 °C, after 60 min
Protocol: Pancreatin Stability: Stability studies were conducted by incubating prodrug (5 µM) with 1 % (w/v) pancreatin (Sigma, P-1625, from porcine pancreas) in 0.025 M Tris buffer containing 0.5 M NaCl (pH 7.5) at 37 °C for 60 min. The reaction was stopped by addition of 2 volumes of methanol. After centrifugation at 14,000 rpm for 10 min, the supernatant was removed and analyzed by LC/MS/MS.

[3] = rat, plasma, 1 h, 2 µM
[4] = aqueous buffer, 1 h
[5] = rat, s9, 1 h, 2 µM
[6] = human, s9, 1 h, 5 µM
[7] = human, s9, 1 h, 2 µM
[8] = human, plasma, 1 h, 2 µM

Compound	Ratio A-BB-A [1]	% of Baclofen Released [2]	% of Prodrug Remaining [2]	% of Baclofen Released [3]	% of Prodrug Remaining [3]	% of Baclofen Released ([4]; pH 2)	% of Prodrug Remaining ([4]; pH 2)	% of Baclofen Released ([4]; pH 7.4)	% of Prodrug Remaining ([4]; pH 7.4)	% of Baclofen Released ([4]; pH 8)	% of Prodrug Remaining ([4]; pH 8)	% of Baclofen Released [5]	% of Prodrug Remaining [5]	% of Baclofen Released [6]	% of Prodrug Remaining [6]	% of Baclofen Released [7]	% of Prodrug Remaining [7]	% of Baclofen Released [8]	% of Prodrug Remaining [8]
CCCC(OC(=O)NC[C@H](CC(=O)[O-])c1ccc(Cl)cc1)OC(=O)c1ccccc1.[Na+] (stereo partly drawn) [(71), Sodium 4-[(1-Benzoyloxybutoxy)carbonylamino]-(3R)-(4-chlorophenyl)-butanoate]	7.1																		
CC(=O)OCOC(=O)NC[C@H](CC(=O)[O-])c1ccc(Cl)cc1.[Na+] [(10), Sodium 4-[(Acetoxymethoxy)carbonylamino]-(3R)-(4-chlorophenyl)-butanoate]	1.2	21%	75%	15%	85%	1%	100%	3%	101%	9%	98%	78%	0%	96%	2%	80%	1%	26%	64%
CCC(=O)OC(OC(=O)NC[C@H](CC(=O)[O-])c1ccc(Cl)cc1)C(C)C.[Na+] (stereo partly drawn) [(48), Sodium 4-[(1-Propanoyloxyisobutoxy)carbonylamino]-(3R)-(4-chlorophenyl)-butanoate]	6.5																		
CCCC(=O)OC(CC)OC(=O)NC[C@H](CC(=O)[O-])c1ccc(Cl)cc1.[Na+] (stereo partly drawn) [(78), Sodium 4-[(1-Butanoyloxypropoxy)carbonylamino]-(3R)-(4-chlorophenyl)-butanoate]	7.9																		
CCOC(C)(OCC)C(=O)OCOC(=O)NC[C@H](CC(=O)[O-])c1ccc(Cl)cc1.[Na+] [(51), Sodium 4-[(2,2-Diethoxypropanoyloxymethoxy)carbonylamino]-(3R)-(4-chlorophenyl)-butanoate]	3.0	50%	44%	72%	31%	0%	100%	2%	97%	9%	91%	103%	2%	100%	3%	91%	6%	50%	53%
CCCC(=O)OC(CCC)OC(=O)NC[C@H](CC(=O)[O-])c1ccc(Cl)cc1.[Na+] (stereo partly drawn) [(73), Sodium 4-[(1-Butanoyloxybutoxy)carbonylamino]-(3R)-(4-chlorophenyl)-butanoate]	3.2																		
O=C([O-])C[C@@H](CNC(=O)OCOC(=O)c1ccccc1)c1ccc(Cl)cc1.[Na+] [(12), Sodium 4-[(Benzoyloxymethoxy)carbonylamino]-(3R)-(4-chlorophenyl)-butanoate]	5.9	77%	15%	14%	72%	0%	100%	0%	100%	0%	105%	100%	3%	100%	2%	100%	1%	5%	95%
CCCC(OC(C)=O)OC(=O)NC[C@H](CC(=O)[O-])c1ccc(Cl)cc1.[Na+] (stereo partly drawn) [(74), Sodium 4-[(1-Acetoxybutoxy)carbonylamino]-(3R)-(4-chlorophenyl)-butanoate]	11.2																		
CC(C)(C)C(=O)OCOC(=O)NC[C@H](CC(=O)[O-])c1ccc(Cl)cc1.[Na+] [(20), Sodium 4-[(Pivaloyloxymethoxy)carbonylamino]-(3R)-(4-chlorophenyl)-butanoate]	11.8	36%	58%	8%	92%	0%	100%	0%	100%	0%	103%	75%	25%	100%	1%	100%	1%	9%	82%
CC(OC(=O)NC[C@H](CC(=O)[O-])c1ccc(Cl)cc1)OC(=O)C(C)(C)C.[Na+] (stereo partly drawn) [(36), Sodium 4-[(1-Pivaloyrloxyethoxy)carbonylamino]-(3R)-(4-chlorophenyl)-butanoate]	1.5																		
CCCC(=O)OC(C)OC(=O)NC[C@H](CC(=O)[O-])c1ccc(Cl)cc1.[Na+] (stereo partly drawn) [(32), Sodium 4-[(1-Butanoyloxyethoxy)carbonylamino]-(3R)-(4-chlorophenyl)-butanoate]	7.6																		
COc1ccc(C(=O)OCOC(=O)NC[C@H](CC(=O)[O-])c2ccc(Cl)cc2)cc1.[Na+] [(53), Sodium 4-[(4-Methoxybenzoyloxymethoxy)carbonylamino]-(3R)-(4-chlorophenyl)-butan oate]	2.4																		
CC(C)C(=O)OC(OC(=O)NC[C@H](CC(=O)[O-])c1ccc(Cl)cc1)C(C)C.[Na+] (stereo partly drawn) [(25), Sodium 4-[(1-Isobutanoyloxyisobutoxy)carbonylamino]-(3R)-(4-chlorophenyl)-butanoate]		84%	22%	96%	5%	0%	101%	0%	100%	0%	100%	98%	1%	95%	2%	91%	4%	4%	93%
CCCC(OC(=O)NC[C@H](CC(=O)[O-])c1ccc(Cl)cc1)OC(=O)C(C)C.[Na+] (stereo partly drawn) [(72), Sodium 4-[(1-Isobutanoyloxybutoxy)carbonylamino]-(3R)-(4-chlorophenyl)-butanoate]	3.5																		
